According to patent US8536215B2, “Pyrazole microbiocides” (Syngenta Crop Protection LLC, priority 2010, dated 2013):
Blank lines part the entries; values can stand above or below the compound they belong to.

Columns and labels:
Rhizoctonia Solani = experiment: Action against Rhizoctonia solani - fungal growth assay; assay type: cell-based; details: 0.002% active ingredient, PDB broth, 24° C., photometric after 3-4 days
Protocol: (§1) Mycelial fragments of a newly grown liquid culture of the fungus were directly mixed into nutrient broth (PDB potato dextrose broth). After placing a (DMSO) solution of the test compounds (0.002% active ingredient) into a microtiter plate (96-well format) the nutrient broth containing the fungal spores was added. The test plates were incubated at 24° C. and the inhibition of growth was measured photometrically after 3-4 days. The activity of a compound was expressed as fungal growth inhibition (0=no growth inhibition, ratings of 80% to 99% mean good to very good inhibition, 100%=complete inhibition).

Puccinia recondita [1] = experiment: Protective action against Puccinia recondita (brown rust) on wheat leaf segments; assay type: in vivo; details: foliar, 192 h, 0.02% active ingredient sprayed on wheat leaf segments, assessed 8 days after inoculation, read-out: preventive fungicidal activity (inhibition)
Protocol: (§2) Wheat leaf segments were placed on agar in multiwell plates (24-well format) and sprayed with test solutions (0.02% active ingredient). After drying, the leaf disks were inoculated with a spore suspension of the fungus. After appropriate incubation the activity of a compound was assessed 8 days after inoculation as preventive fungicidal activity.

Botrytis cinerea = experiment: Action against Botrytis cinerea - fungal growth assay; assay type: cell-based; details: 0.002% active ingredient, PDB broth, 24° C., photometric after 3-4 days
Protocol: as §1, with “Conidia of” for “Mycelial fragments of a newly grown liquid culture of”, “fungus from cryogenic storage was” for “fungus were”

[2] = tested on: Monographella nivalis (Anamorph: Fusarium nivale, Microdochium nivale); experiment: Action against Monographella nivalis (snow mould) - fungal growth assay; assay type: cell-based; details: 0.002% active ingredient, PDB broth, 24° C., photometric after 72 hrs
Protocol: as §1, with “Conidia” for “Mycelial fragments of a newly grown liquid culture”, “fungus from cryogenic storage” for “fungus”, “DMSO-solution” for “(DMSO) solution”, “72 hrs” for “3-4 days. The activity of a compound was expressed as fungal growth inhibition”

Septoria tritici = experiment: Action against Septoria tritici - fungal growth assay; assay type: cell-based; details: Zymoseptoria tritici; 0.002% active ingredient, PDB broth, 24° C., photometric after 72 hrs
Protocol: as §1, with “Conidia” for “Mycelial fragments of a newly grown liquid culture”, “fungus from cryogenic storage” for “fungus”, “determined” for “measured”, “72 hrs.” for “3-4 days.”

Puccinia recondita [3] = experiment: Curative action against Puccinia recondita (brown rust) on wheat leaf segments; assay type: in vivo; details: foliar, 0.02% active ingredient sprayed one day after inoculation of wheat leaf segments, assessed 8 days after inoculation, read-out: curative fungicidal activity (inhibition)
Protocol: Wheat leaf segments were placed on agar in multiwell plates (24-well format) and inoculated with a spore suspension of the fungus. One day after inoculation the leaf segments were sprayed with test solutions (0.02% active ingredient). After appropriate incubation the activity of a compound was assessed 8 days after inoculation as curative fungicidal activity.

[4] = tested on: Erysiphe graminis f. sp. tritici; experiment: Action against Erysiphe graminis f. sp. tritici (wheat powdery mildew), wheat leaf segments, preventive; assay type: in vivo; details: Blumeria graminis, foliar, 168 h; 0.02% active ingredient sprayed on wheat leaf segments, assessed 7 days after inoculation; read-out: preventive fungicidal activity (inhibition)
Protocol: as §2, with “7” for “8”

Pyrenophora teres = experiment: Action against Pyrenophora teres (net blotch) on barley leaf segments, preventive; assay type: in vivo; details: foliar, 96 h, 0.02% active ingredient sprayed on barley leaf segments, assessed 4 days after inoculation, read-out: preventive fungicidal activity (inhibition)
Protocol: as §2, with “Barley” for “Wheat”, “4” for “8”

[5] = tested on: Mycosphaerella arachidis (Cercospora arachidicola [Anamorph]); experiment: Action against Mycosphaerella arachidis (early leaf spot of groundnut) - fungal growth assay; assay type: cell-based; details: 0.002% active ingredient, PDB broth, 24° C., photometric after 6-7 days
Protocol: as §1, with “Conidia” for “Mycelial fragments of a newly grown liquid culture”, “fungus from cryogenic storage” for “fungus”, “6-7” for “3-4”

melting point: 95 to 105 °C
SMILES: CON(C(=O)c1cn(C)nc1C(F)F)C(C)C1CCC(C)=CC1(C)C (stereo not drawn) [Compound 1.081, 3-difluoromethyl-1-methyl-1H-pyrazole-4-carboxylic acid methoxy-[1-(2,2,4-trimethyl-cyclohex-3-enyl)-ethyl]-amide]
inhibition at 0.002 % strength (Rhizoctonia Solani): ≥ 80% | inhibition at 0.02 % strength (Puccinia recondita [1]): ≥ 80% | inhibition at 0.002 % strength (Botrytis cinerea): ≥ 80% | inhibition at 0.002 % strength [2]: ≥ 80% | inhibition at 0.002 % strength (Septoria tritici): ≥ 80% | inhibition at 0.02 % strength (Puccinia recondita [3]): ≥ 80% | inhibition at 0.02 % strength [4]: ≥ 80% | inhibition at 0.02 % strength (Pyrenophora teres): ≥ 80% | inhibition at 0.002 % strength [5]: ≥ 80%

SMILES: CON(C(=O)c1cn(C)nc1C(F)F)C(C)C1CC=C(C)CC1 (stereo not drawn) [Compound 1.049]
inhibition at 0.002 % strength (Rhizoctonia Solani): ≥ 80% | inhibition at 0.002 % strength (Botrytis cinerea): ≥ 80% | inhibition at 0.002 % strength [2]: ≥ 80% | inhibition at 0.002 % strength (Septoria tritici): ≥ 80% | inhibition at 0.02 % strength [4]: ≥ 80% | inhibition at 0.02 % strength (Pyrenophora teres): ≥ 80% | inhibition at 0.002 % strength [5]: ≥ 80%

SMILES: CON(C(=O)c1cn(C)nc1C(F)F)C(C)C1CCC(C)=CC1(C)C (single isomer, unassigned) [Compound 1.081 Diastereomer A, 3-difluoromethyl-1-methyl-1H-pyrazole-4-carboxylic acid methoxy-[1-(2,2,4-trimethyl-cyclohex-3-enyl)-ethyl]-amide]
inhibition at 0.002 % strength (Botrytis cinerea): ≥ 80%
